# According to PubChem BioAssay (NCI):
#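 48-hour exposure; five concentrations; linearly interpolated endpoints. At the TGI there is no net growth.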
# Columns and labels:
# Assay in all cases: inhibition of tumour cell growth, NCI panel, 48 h
# [1] = system: MOLT-4 leukemia
# [2] = system: SK-MEL-2 melanoma
# [3] = system: T-47D breast
# [4] = system: U251 CNS
# [5] = system: A498 renal
# [6] = system: ACHN renal
# [7] = system: HT29 colon
# [8] = system: SK-MEL-5 melanoma
# [9] = system: SF-295 CNS
# [10] = system: MDA-N
# [11] = system: RXF 393 renal
# [12] = system: A549 NSCLC
# [13] = system: PC-3 prostate
# [14] = system: 786-0 renal
# [15] = system: EKVX NSCLC
# [16] = system: CCRF-CEM leukemia
# [17] = system: SW-620 colon
# [18] = system: SK-MEL-28 melanoma
# [19] = system: HL-60(TB) leukemia
Structure (SMILES),TGI [1],TGI [2],TGI [3],TGI [4],TGI [5],TGI [6],TGI [7],TGI [8],TGI [9],TGI [10],TGI [11],TGI [12],TGI [13],TGI [14],TGI [15],TGI [16],TGI [17],TGI [18],TGI [19]
O=c1[nH]c2ccc([N+](=O)[O-])cc2nc1/C=C(\O)c1ccccc1,> 100 µM,> 100 µM,> 100 µM,30.3 µM,47.4 µM,> 100 µM,> 100 µM,> 100 µM,> 100 µM,> 100 µM,49.8 µM,> 100 µM,> 100 µM,20.6 µM,> 100 µM,> 100 µM,,,
Cc1ccc(/C=C2\N=C(N3CCCC(CO)C3)NC2=O)cc1 (stereo not given),> 100 µM,> 100 µM,> 100 µM,> 100 µM,,> 100 µM,> 100 µM,> 100 µM,> 100 µM,> 100 µM,> 100 µM,> 100 µM,> 100 µM,> 100 µM,> 100 µM,> 100 µM,> 100 µM,> 100 µM,> 100 µM
COCCN1C(=O)C2c3[nH]c4ccccc4c3C3CCC(C(C)(C)C)CC3C2C1=O (stereo not given),> 10 µM,,38.5 µM,28.9 µM,,> 10 µM,27 µM,30.9 µM,34.5 µM,30.1 µM,43.1 µM,39.5 µM,29.1 µM,31.5 µM,38.2 µM,87.2 µM,35.5 µM,32.3 µM,37.6 µM
COc1cc2c3c(cc(Cl)nc3c1OC)C(O)(CC(=O)c1ccccc1)C(=O)N2 (stereo not given),,30 µM,> 100 µM,32.7 µM,32.3 µM,28.3 µM,44.7 µM,32.3 µM,32.8 µM,3.65 µM,27.4 µM,33.1 µM,29.2 µM,22 µM,10.4 µM,12.5 µM,> 44.7 µM,33.5 µM,3.68 µM
Cc1ccc(S[C@@H](C)[C@@](O)(C(N)=O)c2ccccc2)cc1,33.3 µM,> 100 µM,> 100 µM,> 100 µM,,> 100 µM,> 100 µM,81.1 µM,41.9 µM,> 100 µM,> 100 µM,> 100 µM,> 100 µM,> 100 µM,> 100 µM,26.2 µM,> 100 µM,> 100 µM,> 100 µM
COC(=O)C(NC(=O)OC(C)(C)C)P(=O)(OC)OC (stereo not given),> 100 µM,> 100 µM,> 100 µM,> 100 µM,> 100 µM,> 100 µM,> 100 µM,> 100 µM,> 100 µM,> 100 µM,> 100 µM,> 100 µM,> 100 µM,> 100 µM,> 100 µM,,> 100 µM,> 100 µM,> 100 µM
Cc1ccc(S(=NS(=O)(=O)c2ccc(C)cc2)c2ccc(C)cc2)cc1,,,> 100 µM,> 100 µM,,> 100 µM,> 100 µM,,> 100 µM,> 100 µM,> 100 µM,> 100 µM,> 100 µM,> 100 µM,> 100 µM,> 100 µM,> 100 µM,> 100 µM,> 100 µM
CC(C)c1ccc(/C=C2\CSCC3=C2N=C2SCC(=O)N2C3c2ccc(C(C)C)cc2)cc1 (stereo not given),> 100 µM,> 100 µM,> 100 µM,> 100 µM,,> 100 µM,> 100 µM,> 100 µM,> 100 µM,> 100 µM,,> 100 µM,> 100 µM,> 100 µM,> 100 µM,> 100 µM,> 100 µM,> 100 µM,> 100 µM
CCOC(=O)CCC(NC(=O)c1ccc(Nc2nc3ccccc3nc2C(=O)OCC)cc1)C(=O)OCC (stereo not given),> 100 µM,24.4 µM,7.06 µM,9.66 µM,18.6 µM,11.5 µM,> 89.7 µM,> 100 µM,23 µM,> 100 µM,,14.3 µM,> 100 µM,3.46 µM,40.1 µM,> 100 µM,49.9 µM,> 100 µM,> 100 µM
Cn1cc(NC(=O)Nc2cc(C(=O)Nc3cc(C(=O)Nc4cc(S(=O)(=O)O)c5cc(S(=O)(=O)O)cc(S(=O)(=O)O)c5c4)n(C)c3)n(C)c2)cc1C(=O)Nc1cc(C(=O)Nc2cc(S(=O)(=O)O)c3cc(S(=O)(=O)O)cc(S(=O)(=O)O)c3c2)n(C)c1,> 100 µM,,> 100 µM,> 100 µM,,> 100 µM,> 100 µM,> 100 µM,> 100 µM,> 100 µM,> 100 µM,> 100 µM,> 100 µM,> 100 µM,> 100 µM,> 100 µM,> 100 µM,> 100 µM,> 100 µM
O=S(=O)(O)c1ccc2c(N=Nc3ccc(Sc4ccc(N=Nc5c(O)ccc6cc(S(=O)(=O)O)ccc56)cc4)cc3)c(O)ccc2c1,> 100 µM,> 100 µM,> 100 µM,> 100 µM,,> 100 µM,> 100 µM,> 100 µM,> 100 µM,> 100 µM,> 100 µM,> 100 µM,> 100 µM,> 100 µM,> 100 µM,> 100 µM,> 100 µM,> 100 µM,> 100 µM
CC(NC(=O)C(Cc1ccc(OC(=O)c2ccccc2)cc1)NC(=O)OC(C)(C)C)C(=O)NCC(=O)NC(Cc1ccccc1)C(=O)NN (stereo not given),69.4 µM,,> 100 µM,> 100 µM,> 100 µM,> 100 µM,> 100 µM,> 100 µM,> 100 µM,> 100 µM,> 100 µM,> 100 µM,> 100 µM,> 100 µM,> 100 µM,,> 100 µM,> 100 µM,41.5 µM
O=c1[nH]nc(-c2ccccc2)n1-n1cnnc1,> 100 µM,> 100 µM,> 100 µM,> 100 µM,> 100 µM,> 100 µM,> 100 µM,> 100 µM,> 100 µM,> 100 µM,> 100 µM,> 100 µM,> 100 µM,> 100 µM,> 100 µM,> 100 µM,> 100 µM,,
COC(=O)c1ccc(NCC2=C(Br)C(=O)C=CC2=O)cc1Cl,> 100 µM,52.6 µM,38.6 µM,43.6 µM,> 100 µM,30.7 µM,32.6 µM,41.1 µM,> 100 µM,35.8 µM,,> 100 µM,43.8 µM,26.1 µM,27.9 µM,> 100 µM,30.8 µM,33.6 µM,> 100 µM
Clc1cc2nnn(C3CCCO3)c2cc1Cl (stereo not given),> 100 µM,> 100 µM,> 100 µM,> 100 µM,> 100 µM,,> 100 µM,> 100 µM,> 100 µM,> 100 µM,> 100 µM,> 100 µM,> 100 µM,> 100 µM,> 100 µM,> 100 µM,,,> 100 µM
Cc1cc(=O)oc2c(CNC(CC(C)C)C(=O)O)c(O)ccc12 (stereo not given),> 100 µM,> 100 µM,> 100 µM,> 100 µM,,> 100 µM,> 100 µM,> 100 µM,> 100 µM,> 100 µM,> 100 µM,> 100 µM,> 100 µM,> 100 µM,> 100 µM,,> 100 µM,> 100 µM,> 100 µM
COC1CC(OC2C(C)OC(OC3C(C)OC(OC4C(C)OC(O[C@H]5CC[C@@]6(C)C(=CC[C@]7(O)[C@@H]6C[C@@H](O)[C@@]6(C)[C@]7(O)CC[C@@]6(O)C(C)=O)C5)CC4OC)CC3OC)CC2OC)OC(C)C1O (stereo not given in full),> 12.5 µM,> 12.5 µM,> 12.5 µM,> 12.5 µM,,> 12.5 µM,> 12.5 µM,> 12.5 µM,> 12.5 µM,> 12.5 µM,,> 12.5 µM,> 12.5 µM,> 12.5 µM,> 12.5 µM,> 12.5 µM,> 12.5 µM,> 12.5 µM,> 12.5 µM
CCOC(=O)c1cc(Br)c(-c2cc(C)co2)[nH]1,> 100 µM,> 100 µM,> 100 µM,> 100 µM,> 100 µM,,> 100 µM,> 100 µM,> 100 µM,> 100 µM,> 100 µM,> 100 µM,> 100 µM,> 100 µM,> 100 µM,> 100 µM,> 100 µM,> 100 µM,> 100 µM
COc1ccc(CNc2nc3ccccc3nc2C(=O)O)cc1,,> 100 µM,> 100 µM,> 100 µM,> 100 µM,,> 100 µM,> 100 µM,> 100 µM,> 100 µM,> 100 µM,> 100 µM,> 100 µM,> 100 µM,> 100 µM,> 100 µM,> 100 µM,> 100 µM,> 100 µM
CCCCC[C@H]1CCCCCCCCCC(=O)OC2C(O[C@@H]3OC(C)[C@H](OC(=O)[C@@H](C)CC)C(O[C@@H]4OC(C)[C@H](O)C(O)[C@@H]4O)[C@@H]3OC(=O)[C@H](C)CC)[C@H](OC3C(O)[C@@H](O)C(C)O[C@H]3O1)OC(CO)[C@H]2O (stereo not given in full),35.4 µM,30.5 µM,33.3 µM,32.1 µM,,,30.3 µM,30.9 µM,32.7 µM,31.4 µM,,31.2 µM,29.8 µM,31.7 µM,36.7 µM,32.5 µM,30.9 µM,30.9 µM,35.9 µM
CC(C)(C)C1=C(Br)C(OC(=O)C(F)(F)F)(C(C)(C)C)OP1(=O)c1ccccc1 (stereo not given),,> 100 µM,> 100 µM,> 100 µM,> 100 µM,> 100 µM,> 100 µM,> 100 µM,> 100 µM,> 100 µM,,> 100 µM,93.5 µM,> 100 µM,69 µM,,,> 100 µM,> 100 µM
NN/C(=N\S(=O)(=O)c1ccc(S(=O)(=O)c2ccccc2)s1)Nc1ccc(Cl)cc1,41.2 µM,53.8 µM,59.3 µM,> 100 µM,> 100 µM,> 100 µM,65.4 µM,46.2 µM,> 100 µM,41.8 µM,47.6 µM,> 100 µM,> 100 µM,54.2 µM,50.4 µM,,> 100 µM,> 100 µM,62.2 µM
CC(C)(C)[Si](C)(C)OC[C@H](/C=C\CCCC(=O)O)NC1(c2ccccc2)c2ccccc2-c2ccccc21,33.9 µM,26.7 µM,> 100 µM,30.6 µM,32.1 µM,49.5 µM,47.6 µM,23.3 µM,> 100 µM,> 100 µM,25 µM,> 100 µM,40.3 µM,30.3 µM,40.9 µM,,> 100 µM,33 µM,37 µM
N#Cc1nc(-c2cccc(-c3nc(C#N)c(N)o3)n2)oc1N,> 100 µM,> 100 µM,> 100 µM,> 100 µM,> 100 µM,> 100 µM,> 100 µM,> 100 µM,> 100 µM,> 100 µM,,> 100 µM,> 100 µM,> 100 µM,> 100 µM,46.9 µM,> 100 µM,> 100 µM,> 100 µM
O=C1C(c2c(O)[nH]c3ccc(S(=O)(=O)NCCO)cc23)=Nc2ccccc21,36.6 µM,17.9 µM,50.4 µM,12.9 µM,9.07 µM,> 100 µM,> 100 µM,> 100 µM,> 100 µM,> 100 µM,18.9 µM,> 100 µM,54.3 µM,28.9 µM,> 100 µM,> 100 µM,> 100 µM,> 100 µM,
